Measurements as given in US20260138988A1, “Spiropyrrolidine Derived Antiviral Agents” (Enanta Pharmaceuticals, Inc., priority 2021, published 2026).

What follows are compounds tested against SARS-CoV-2 3CL-protease (Severe acute respiratory syndrome coronavirus 2, UniProt P0DTD1) (assay: SARS-CoV-2 3C-Like (3CL) Protease Fluorescence Assay (FRET)). Conditions: SARS-CoV-2 3CL-protease 10 nM, test compounds 0-10 μM, duplicate, read-out: IC50.
Type: biochemical

`CC(C)(C)C[C@H](NC(=O)[C@H](CC1CC1)NC(=O)c1cn(C2CC2)nn1)C(=O)N1C[C@]2(C[C@H]1C#N)C(=O)Nc1ccccc12` [Example 324] and `CC(C)(C)C[C@H](NC(=O)[C@H](CC1CC1)NC(=O)C1CCC1)C(=O)N1C[C@]2(C[C@H]1C#N)C(=O)Nc1ccccc12` [Example 320] cannot be ordered by IC50: < 100 nM for the first, < 100 nM for the second.

`CCN(C(=O)[C@H](C)NC(=O)c1ccc(F)cc1)[C@@H](CC(C)C)C(=O)N1C[C@]2(C[C@H]1C#N)C(=O)Nc1ccccc12` [Example 372] and `CCN(C(=O)[C@H](C)NC(=O)C(F)(F)C(F)(F)F)[C@@H](CC(C)C)C(=O)N1C[C@]2(C[C@H]1C#N)C(=O)Nc1ccccc12` [Example 366] cannot be ordered by IC50: < 100 nM for the first, < 100 nM for the second.

`CC(C)C[C@H](C(=O)N1C[C@]2(C[C@H]1C#N)C(=O)Nc1ccccc12)n1cccc(NC(=O)OC(C)(C)C)c1=O` [Example 360] and `CC(C)C[C@H](NC(=O)OC1CCC1)C(=O)N[C@@H](CC(C)(C)C)C(=O)N1C[C@]2(C[C@H]1C#N)C(=O)Nc1ccccc12` [Example 250] cannot be ordered by IC50: < 100 nM for the first, < 100 nM for the second.

`C[C@H](NC(=O)C1(F)C(F)(F)C1(F)F)C(=O)N(C)[C@@H](CC1CC1)C(=O)N1C[C@]2(C[C@H]1C#N)C(=O)Nc1ccccc12` [Example 195] and `CC(C)C[C@@H](C(=O)N1C[C@]2(C[C@H]1C#N)C(=O)Nc1ccccc12)N(C)C(=O)[C@H](C)NC(=O)C1(F)C(F)(F)C1(F)F` [Example 275] cannot be ordered by IC50: < 100 nM for the first, < 100 nM for the second.

`CN(C(=O)[C@@H]1CC[C@@H](C(F)(F)F)N1)[C@@H](CC(C)(C)C)C(=O)N1C[C@]2(C[C@H]1C#N)C(=O)Nc1ccccc12` [Example 233] and `CN(C(=O)[C@@H]1C[C@@H](C(F)(F)F)CN1)[C@@H](CC(C)(C)C)C(=O)N1C[C@]2(C[C@H]1C#N)C(=O)Nc1ccccc12` [Example 229] cannot be ordered by IC50: < 100 nM for the first, < 100 nM for the second.

`CC(C)(C)C[C@H](NC(=O)[C@@H](NC(=O)C(F)(F)c1ccccc1)c1ccccc1)C(=O)N1C[C@]2(C[C@H]1C#N)C(=O)Nc1ccccc12` [Example 249] and `CC(C)(C)C[C@H](NC(=O)[C@@H](Nc1cnc2ccccc2c1)C1CC1)C(=O)N1C[C@]2(C[C@H]1C#N)C(=O)Nc1ccccc12` [Example 343] cannot be ordered by IC50: < 100 nM for the first, < 100 nM for the second.

`CC(C)C[C@@H](C(=O)N1C[C@]2(C[C@H]1C#N)C(=O)Nc1ccccc12)N(C)C(=O)[C@@H]1CC2(CCCC2)CN1C(C)C` [Example 255] and `CC(C)N1[C@H](C(=O)N(C)[C@@H](CC(C)(C)C)C(=O)N2C[C@]3(C[C@H]2C#N)C(=O)Nc2ccccc23)C[C@@H]2CCC[C@@H]21` [Example 178] cannot be ordered by IC50: < 100 nM for the first, < 100 nM for the second.

`CC(C)(C)C[C@H](NC(=O)[C@@H](Nc1ccc(F)cc1F)C1CC1)C(=O)N1C[C@]2(C[C@H]1C#N)C(=O)Nc1ccccc12` [Example 341] and `CC(C)(C)C[C@H](NC(=O)[C@H](CC1CC1)NC(=O)C1CC2(CCC2)C1)C(=O)N1C[C@]2(C[C@H]1C#N)C(=O)Nc1ccccc12` [Example 321] cannot be ordered by IC50: < 100 nM for the first, < 100 nM for the second.

`C[C@H](NC(=O)CCCC(F)(F)F)C(=O)N(C)[C@@H](CC(C)(C)C)C(=O)N1C[C@]2(C[C@H]1C#N)C(=O)Nc1ccccc12` [Example 264] and `C[C@H](NC(c1ccc(F)cc1)C(F)(F)F)C(=O)N(C)[C@@H](CC(C)(C)C)C(=O)N1C[C@]2(C[C@H]1C#N)C(=O)Nc1ccccc12` (stereo partly shown) [Example 302] cannot be ordered by IC50: < 100 nM for the first, < 100 nM for the second.

`C[C@H](NC(=O)C(F)(F)C(F)(F)F)C(=O)N(C)[C@@H](CC(C)(C)C)C(=O)N1C[C@]2(C[C@H]1C#N)C(=O)Nc1ccc(Cl)cc12` [Example 174] and `CC(C)C[C@@H](C(=O)N1C[C@]2(C[C@H]1C#N)C(=O)Nc1ccc(Cl)cc12)N(C)C(=O)[C@H](C)NC(=O)C(F)(F)C(F)(F)F` [Example 168] cannot be ordered by IC50: < 100 nM for the first, < 100 nM for the second.

First: CN(C(=O)[C@@H]1CC[C@@H](C2CC2)N1)[C@@H](CC(C)(C)C)C(=O)N1C[C@]2(C[C@H]1C#N)C(=O)Nc1ccccc12 [Example 228]
Second: CC(C)N1C[C@]2(C[C@H]1C(=O)N(C)[C@@H](CC(C)(C)C)C(=O)N1C[C@]3(C[C@H]1C#N)C(=O)Nc1ccccc13)C(=O)Nc1ccccc12 [Example 183]
The IC50 of the first is lower: < 100 nM for the first, 100 to 1000 nM for the second. The first is the more potent here.
